These are literature values, as cited in patent US20130281390A1, “METHOD FOR TREATING DRY EYE” (priority 2010, published 2013).

SMILES strings stand for the structures.

In this series the test system is subjects with meibomian gland dysfunction. Particulars: daily topical administration to the ocular surface.

In the case of `CC[C@H]1OC(=O)[C@H](C)[C@@H](O[C@H]2C[C@@](C)(OC)[C@@H](O)[C@H](C)O2)[C@H](C)[C@@H](O[C@@H]2O[C@H](C)C[C@H](N(C)C)[C@H]2O)[C@](C)(O)C[C@@H](C)CN(C)[C@H](C)[C@@H](O)[C@]1(C)O` [azithromycin], the “physicochemical properties of the meibum” value is listed as “improved the physicochemical properties of the meibum towards that of normal subjects”.
